Read-outs that look alike come from different tables or passages of the source. Marks after values point to notes of the source that are not given here.
Tests used:
[1] = biological target: GluN2B-W607C-containing NMDARs (Homo sapiens, UniProt Q05586+Q13224, W607C); experiment: TEVC current recordings from Xenopus oocytes, channel blocker inhibition; assay type: cell-based; conditions: for % inhibition: 2B-W607C, 100 μM blocker, −40 mV; for IC50: IC50, 2B-W607C, holding −40 mV
[2] = biological target: T1, GluN1/GluN2A-L611Q (Homo sapiens, UniProt Q05586+Q12879, L611Q); experiment: Current-voltage curves; conditions: 2A-L611Q
[3] = biological target: GluN2B-V618G-containing NMDARs (Homo sapiens, UniProt Q05586+Q13224, V618G); experiment: TEVC current recordings from Xenopus oocytes, channel blocker inhibition; assay type: cell-based; conditions: for % inhibition: 2B-V618G, 100 μM blocker, −40 mV; for IC50: IC50, 2B-V618G, holding −40 mV
[4] = biological target: WT GluN1/GluN2A (Homo sapiens, UniProt Q05586+Q12879); experiment: as above; assay type: cell-based; conditions: for IC50: IC50, WT GluN1/WT 2A, holding −40 mV; for % inhibition: WT GluN1/WT 2A, 100 μM blocker, −40 mV
[5] = biological target: GluN2B-V620M-containing NMDARs (Homo sapiens, UniProt Q05586+Q13224, V620M); experiment: as above; assay type: cell-based; conditions: for % inhibition: 2B-V620M, 100 μM blocker, −40 mV; for IC50: IC50, 2B-V620M, holding −40 mV
[6] = biological target: GluN2B-N616K-containing NMDARs (Homo sapiens, UniProt Q05586+Q13224, N616K); experiment: as above; assay type: cell-based; conditions: for % inhibition: 2B-N616K, 100 μM blocker, −40 mV; for IC50: IC50, 2B-N616K, holding −40 mV
[7] = biological target: GluN1/GluN2B-N615K (Homo sapiens, UniProt Q05586+Q13224, N615K); experiment: as above; assay type: cell-based; conditions: for % inhibition: 100 μM blocker, −40 mV
[8] = biological target: GluN2B-G611V-containing NMDARs (Homo sapiens, UniProt Q05586+Q13224, G611V); experiment: as above; assay type: cell-based; conditions: for % inhibition: 2B-G611V, 100 μM blocker, −40 mV; for IC50: IC50, 2B-G611V, holding −40 mV
[9] = biological target: GluN1-G620R/GluN2A (Homo sapiens, UniProt Q05586+Q12879, G620R); experiment: as above; assay type: cell-based; conditions: for % inhibition: 1-G620R/2A, 100 μM blocker, −40 mV; for IC50: IC50, 1-G620R/2A, holding −40 mV
[10] = biological target: GluN2A-N615K-containing NMDARs (Homo sapiens, UniProt Q05586+Q12879, N615K); experiment: as above; assay type: cell-based; conditions: for % inhibition: 2A-N615K, 100 μM blocker, −40 mV; for IC50: IC50, 2A-N615K, holding −40 mV
[11] = biological target: GluN2A-N614S-containing NMDARs (Homo sapiens, UniProt Q05586+Q12879, N614S); experiment: as above; assay type: cell-based; conditions: for % inhibition: 2A-N614S, 100 μM blocker, −40 mV; for IC50: IC50, 2A-N614S, holding −40 mV
[12] = biological target: GluN1/GluN2B-N615I (Homo sapiens, UniProt Q05586+Q13224, N615I); experiment: as above; assay type: cell-based; conditions: for % inhibition: 2B-N615I, 100 μM blocker, −40 mV; for IC50: IC50, 2B-N615I, holding −40 mV
[13] = biological target: T1, GluN1/GluN2A-L611Q; experiment: as above; assay type: cell-based; conditions: for % inhibition: 2A-L611Q, 100 μM blocker, −40 mV; for IC50: IC50, 2A-L611Q, holding −40 mV
[14] = biological target: WT GluN1/GluN2B (Homo sapiens, UniProt Q05586+Q13224); experiment: as above; assay type: cell-based; conditions: for IC50: IC50, WT GluN1/WT 2B, holding −40 mV; for % inhibition: WT GluN1/WT 2B, 100 μM blocker, −40 mV

For CNC1(c2ccccc2Cl)CCCCC1=O (stereo not shown) [ketamine], the “% inhibition” value ([1]; w/ 1 mM Mg^2+) was 89 ± 2.8% (9), the “% inhibition” value ([1]; w/o Mg^2+) was 80 ± 3.6% (12)^¥ and the “reduced potency (less potent) vs WT” value ([1]; GluN2B-W607C, absence of Mg^2+) was ~ 3 fold. For the same compound, the IC50 ([1]; w/ 1 mM Mg^2+) was 11 µM, the IC50 ([1]; w/o Mg^2+) was 16 µM and the “z δ (apparent, combined block)” value ([2]; 1 mM Mg^2+ + 0.3 μM ketamine) was 1.14. The “z δ (apparent, combined block)” value ([2]; 1 mM Mg^2+ + 1.0 μM ketamine) was 1.02, the “z δ (apparent, combined block)” value ([2]; 1 mM Mg^2+ + 3.0 μM ketamine) was 1.01 and the “z δ (apparent, combined block)” value ([2]; 1 mM Mg^2+ + 10 μM ketamine) was 0.84. For the same compound, the “z δ (apparent, combined block)” value ([2]; 1 mM Mg^2+ + 30 μM ketamine, zδ was fixed to 0.80 for this condition) was 0.80 ^*, the “z δ (apparent, combined block)” value ([2]; 1 mM Mg^2+ + 100 μM ketamine) was 0.80 and the “% inhibition” value ([3]; w/ 1 mM Mg^2+) was 81 ± 2.1% (8). For the same compound, the “% inhibition” value ([3]; w/o Mg^2+) was 77 ± 3.0% (8)^¥, the “reduced potency (less potent) vs WT” value ([3]; GluN2B-V618G, absence of Mg^2+) was ~ 3 fold and the IC50 ([3]; w/ 1 mM Mg^2+) was 24 µM. For the same compound, the IC50 ([3]; w/o Mg^2+) was 18 µM, the IC50 ([4]; w/ 1 mM Mg^2+) was 17 µM and the IC50 ([4]; w/o Mg^2+) was 5.5 µM. For the same compound, the “% inhibition” value ([4]; w/ 1 mM Mg^2+) was 79 ± 2.4% (24), the “% inhibition” value ([4]; w/o Mg^2+) was 92 ± 1.1% (25) and the “% inhibition” value ([5]; w/ 1 mM Mg^2+) was 91 ± 2.8% (8). For the same compound, the “% inhibition” value ([5]; w/o Mg^2+) was 93 ± 1.0% (10), the “reduced potency in 1 mM Mg^2+ vs absence of Mg^2+” value ([5]; GluN2B-V620M) was 2.1 fold and the IC50 ([5]; w/ 1 mM Mg^2+) was 7 µM. The IC50 ([5]; w/o Mg^2+) was 3.4 µM, the “% inhibition” value ([6]; w/ 1 mM Mg^2+) was 93 ± 1.3% (13)^¥ and the “% inhibition” value ([6]; w/o Mg^2+) was 91 ± 2.7% (8). For the same compound, the “enhanced potency in comparison to WT NMDARs” value (shortened to “enhanced potency in comparison”) ([6]; GluN2B-N616K, absence of Mg^2+) was 1.8 fold, the IC50 ([6]; w/ 1 mM Mg^2+) was 2.5 µM and the IC50 ([6]; w/o Mg^2+) was 2.3 µM. The IC50 [7] was over 100 µM, the “% inhibition” value ([7]; 2B-N615K, w/ 1 mM Mg^2+) was 6.5 ± 1.5% (16) ^*^¥ and the “% inhibition” value ([7]; 2B-N615K, w/o Mg^2+) was 22 ± 3.8 (15)^¥ %. The IC50 ([7]; 2B-N615K, w/ 1 mM Mg^2+, holding −40 mV) was over 100 µM, the “reduced potency compared to the WT receptors” value ([7]; GluN2B-N615K, presence of 1 mM Mg^2+) was “over 5.9 fold” and the “% inhibition” value ([8]; w/ 1 mM Mg^2+) was 88 ± 1.6% (16). The “% inhibition” value ([8]; w/o Mg^2+) was 92 ± 2.6% (7), the “reduced potency in 1 mM Mg^2+ vs absence of Mg^2+” value ([8]; GluN2B-G611V) was 2.6 fold and the IC50 ([8]; w/ 1 mM Mg^2+) was 8 µM. The IC50 ([8]; w/o Mg^2+) was 3.1 µM, the “% inhibition” value ([9]; w/ 1 mM Mg^2+) was 97 ± 0.6 (7)^¥ % and the “% inhibition” value ([9]; w/o Mg^2+) was 95 ± 1.8 (12) %. For the same compound, the “increased potency in 1 mM Mg^2+ compared to the same variant in the absence of Mg^2+” value (from here on “increased potency”) ([9]; GluN1-G620R) was 2.5 fold, the “enhanced potency in comparison” value ([9]; GluN1-G620R, absence of Mg^2+) was 2.2 fold and the IC50 ([9]; w/ 1 mM Mg^2+) was 1 µM. The IC50 ([9]; w/o Mg^2+) was 2.5 µM, the “% inhibition” value ([10]; w/ 1 mM Mg^2+) was 92 ± 3.3% (7)^¥ and the “% inhibition” value ([10]; w/o Mg^2+) was 93 ± 1.5% (18). The IC50 ([10]; w/ 1 mM Mg^2+) was 1.6 µM, the IC50 ([10]; w/o Mg^2+) was 4.3 µM and the “increased potency” value ([10]; printed GluN2A-N616K) was 2.7 fold. The “% inhibition” value ([11]; w/ 1 mM Mg^2+) was 77 ± 4.1% (9), the “% inhibition” value ([11]; w/o Mg^2+) was 78 ± 3.0% (12)^¥ and the “reduced potency (less potent) vs WT” value ([11]; GluN2A-N614S, absence of Mg^2+) was ~ 3 fold. For the same compound, the IC50 ([11]; w/ 1 mM Mg^2+) was 31 µM, the IC50 ([11]; w/o Mg^2+) was 29 µM and the “% inhibition” value ([12]; w/ 1 mM Mg^2+) was 94 ± 1.8% (8)^¥. The “% inhibition” value ([12]; w/o Mg^2+) was 89 ± 1.9 (10) %, the “enhanced potency in comparison” value ([12]; GluN2B-N615I, absence of Mg^2+) was 8.1 fold and the IC50 ([12]; w/ 1 mM Mg^2+) was 0.76 µM. The IC50 ([12]; w/o Mg^2+) was 0.51 µM, the “% inhibition” value ([13]; w/ 1 mM Mg^2+) was 93 ± 2.1% (10) ^*^¥ and the “% inhibition” value ([13]; w/o Mg^2+) was 87 ± 1.5% (17). For the same compound, the “increased potency” value ([13]; GluN2A-L611Q) was 1.8 fold, the IC50 ([13]; w/ 1 mM Mg^2+) was 4 µM and the IC50 ([13]; w/o Mg^2+) was 7.2 µM. The IC50 ([14]; w/ 1 mM Mg^2+) was 14 µM, the IC50 ([14]; w/o Mg^2+) was 4.2 µM and the “% inhibition” value ([14]; w/ 1 mM Mg^2+) was 86 ± 1.0% (12). For the same compound, the “% inhibition” value ([14]; w/o Mg^2+) was 95 ± 1.0% (13).

Source: article PMC10902181 (Journal of neurochemistry, 2023)
